# Calls of active or inactive are those of the source. The rule behind the calls is not given here.
# Molecular target: Botulinum neurotoxin type F light chain protease (Clostridium botulinum)
# Assay: BoNT/F light chain protease inhibitors, dose response, biochemical, multiplex microsphere, Powder Set 03 (AID 720671)
# Conditions: multiplex microsphere protease cleavage assay, BoNT/F LC
row,SMILES,EC50
1,CC(C)CS(=O)(=O)Nc1ccc2nc(-c3cccs3)c(-c3cccs3)nc2c1,> 20 µM (inactive)
2,N#Cc1ccc(-c2cn3nc(-c4ccc(F)cc4)c(-c4ccc(F)cc4)nc3n2)cc1,> 20 µM (inactive)
3,COc1ccc(-c2cn3nc(-c4ccc(F)cc4)c(-c4ccc(F)cc4)nc3n2)cc1,> 20 µM (inactive)
4,CCNC(=O)Nc1ccc2nc(-c3ccccc3)c(-c3ccccc3)nc2c1,> 20 µM (inactive)
5,N#Cc1ccc(-c2cn3nc(-c4ccccc4)c(-c4ccccc4)nc3n2)cc1,> 20 µM (inactive)
6,COc1ccc(-c2nc3nc(-c4ccccc4)cn3nc2-c2ccc(OC)cc2)cc1,> 20 µM (inactive)
7,CCCNC(=O)Nc1ccc2nc(-c3ccccc3)c(-c3ccccc3)nc2c1,> 20 µM (inactive)
8,CCCS(=O)(=O)Nc1ccc2nc(-c3cccs3)c(-c3cccs3)nc2c1,> 20 µM (inactive)
9,Cc1ccc(-c2cn3nc(-c4ccc(F)cc4)c(-c4ccc(F)cc4)nc3n2)cc1,> 20 µM (inactive)
10,COc1ccc(-c2nc3nc(-c4ccc(OC(F)(F)F)cc4)cn3nc2-c2ccc(OC)cc2)cc1,> 20 µM (inactive)
11,CCCCOC(=O)Nc1ccc2nc(-c3cccs3)c(-c3cccs3)nc2c1,> 20 µM (inactive)
12,CC(C)NC(=O)Nc1ccc2nc(-c3cccs3)c(-c3cccs3)nc2c1,> 20 µM (inactive)
13,CS(=O)(=O)c1ccc(-c2cn3nc(-c4ccc(F)cc4)c(-c4ccc(F)cc4)nc3n2)cc1,> 20 µM (inactive)
14,FC(F)(F)Oc1ccc(-c2cn3nc(-c4ccccc4)c(-c4ccccc4)nc3n2)cc1,> 20 µM (inactive)
15,O=C(Nc1ccc2nc(-c3cccs3)c(-c3cccs3)nc2c1)OCc1ccccc1,> 20 µM (inactive)
16,CCNC(=S)Nc1ccc2nc(-c3ccccc3)c(-c3ccccc3)nc2c1,> 20 µM (inactive)
17,CC(C)(C)NC(=O)Nc1ccc2nc(-c3ccccc3)c(-c3ccccc3)nc2c1,> 20 µM (inactive)
18,O=S(=O)(Nc1ccc2nc(-c3cccs3)c(-c3cccs3)nc2c1)C1CC1,> 20 µM (inactive)
19,O=C(Nc1ccc2nc(-c3ccccc3)c(-c3ccccc3)nc2c1)C1CCCC1,> 20 µM (inactive)
20,COc1ccc(-c2cn3nc(-c4ccc(F)cc4)c(-c4ccc(F)cc4)nc3n2)c(OC)c1,1.5 µM
21,Fc1ccc(-c2nc3nc(-c4ccc(OC(F)(F)F)cc4)cn3nc2-c2ccc(F)cc2)cc1,> 20 µM (inactive)

row,SMILES,EC50
1,Cc1ccc(-c2cn3nc(-c4ccc(C)cc4)c(-c4ccc(C)cc4)nc3n2)cc1,> 20 µM (inactive)
2,Fc1ccc(-c2cn3nc(-c4ccc(F)cc4)c(-c4ccc(F)cc4)nc3n2)cc1,4 µM
3,Clc1ccc(-c2cn3nc(-c4ccccc4)c(-c4ccccc4)nc3n2)c(Cl)c1,> 20 µM (inactive)
4,COc1ccc(-c2cn3nc(-c4ccc(C)cc4)c(-c4ccc(C)cc4)nc3n2)c(OC)c1,> 20 µM (inactive)
5,O=C(Nc1ccc2nc(-c3cccs3)c(-c3cccs3)nc2c1)C1CC1,> 20 µM (inactive)
6,CCS(=O)(=O)Nc1ccc2nc(-c3ccccc3)c(-c3ccccc3)nc2c1,> 20 µM (inactive)
7,COc1cccc(-c2cn3nc(-c4ccc(F)cc4)c(-c4ccc(F)cc4)nc3n2)c1,7.9 µM
8,Fc1ccc(-c2cn3nc(-c4ccccc4)c(-c4ccccc4)nc3n2)cc1,> 20 µM (inactive)
9,Cc1ccc(-c2nc3nc(-c4ccccc4)cn3nc2-c2ccc(C)cc2)cc1,5.4 µM
10,O=C(Nc1ccc2nc(-c3ccccc3)c(-c3ccccc3)nc2c1)C1CCC1,> 20 µM (inactive)
11,Fc1cccc(-c2cn3nc(-c4ccccc4)c(-c4ccccc4)nc3n2)c1,18 µM
12,CC(C)OC(=O)Nc1ccc2nc(-c3ccccc3)c(-c3ccccc3)nc2c1,> 20 µM (inactive)
13,COc1ccc(-c2nc3nc(-c4cccc(OC)c4)cn3nc2-c2ccc(OC)cc2)cc1,> 20 µM (inactive)
14,COc1ccc(-c2nc3nc(-c4cccc(F)c4)cn3nc2-c2ccc(OC)cc2)cc1,4.4 µM
15,CS(=O)(=O)c1ccc(-c2cn3nc(-c4ccccc4)c(-c4ccccc4)nc3n2)cc1,> 20 µM (inactive)
16,O=C(Nc1ccc2nc(-c3ccccc3)c(-c3ccccc3)nc2c1)OCc1ccccc1,> 20 µM (inactive)
17,Cc1ccc(-c2nc3nc(-c4ccc(S(C)(=O)=O)cc4)cn3nc2-c2ccc(C)cc2)cc1,> 20 µM (inactive)
18,COC(=O)Nc1ccc2nc(-c3cccs3)c(-c3cccs3)nc2c1,> 20 µM (inactive)
19,O=C(Nc1ccc2nc(-c3ccccc3)c(-c3ccccc3)nc2c1)C1CC1,> 20 µM (inactive)
20,CC(=O)Nc1ccc2nc(-c3ccccc3)c(-c3ccccc3)nc2c1,> 20 µM (inactive)
21,Cc1ccc(-c2nc3nc(-c4ccc(F)cc4)cn3nc2-c2ccc(C)cc2)cc1,> 20 µM (inactive)

row,SMILES,EC50
1,COc1ccc(-c2nc3nc(-c4ccc(C#N)cc4)cn3nc2-c2ccc(OC)cc2)cc1,> 20 µM (inactive)
2,CCCCOC(=O)Nc1ccc2nc(-c3ccccc3)c(-c3ccccc3)nc2c1,> 20 µM (inactive)
3,CCCS(=O)(=O)Nc1ccc2nc(-c3ccccc3)c(-c3ccccc3)nc2c1,> 20 µM (inactive)
4,COc1ccc(-c2nc3nc(-c4ccccc4OC)cn3nc2-c2ccc(OC)cc2)cc1,5.2 µM
5,CCCOC(=O)Nc1ccc2nc(-c3cccs3)c(-c3cccs3)nc2c1,> 20 µM (inactive)
6,O=C(Nc1ccc2nc(-c3cccs3)c(-c3cccs3)nc2c1)C1CCCC1,> 20 µM (inactive)
7,COc1ccc(-c2nc3nc(-c4ccc(C)cc4)cn3nc2-c2ccc(OC)cc2)cc1,> 20 µM (inactive)
8,CCC(=O)Nc1ccc2nc(-c3ccccc3)c(-c3ccccc3)nc2c1,> 20 µM (inactive)
9,COc1ccccc1-c1cn2nc(-c3ccc(C)cc3)c(-c3ccc(C)cc3)nc2n1,> 20 µM (inactive)
10,O=C(Nc1ccc2nc(-c3ccccc3)c(-c3ccccc3)nc2c1)NC1CCCC1,> 20 µM (inactive)
11,Cc1ccc(-c2nc3nc(-c4ccc(OC(F)(F)F)cc4)cn3nc2-c2ccc(C)cc2)cc1,> 20 µM (inactive)
12,COc1ccc(-c2nc3nc(-c4ccc(F)cc4)cn3nc2-c2ccc(OC)cc2)cc1,> 20 µM (inactive)
13,COc1ccc(-c2cn3nc(-c4ccc(OC)cc4)c(-c4ccc(OC)cc4)nc3n2)cc1,> 20 µM (inactive)
14,CCOC(=O)Nc1ccc2nc(-c3ccccc3)c(-c3ccccc3)nc2c1,> 20 µM (inactive)
15,O=C(Nc1ccc2nc(-c3ccccc3)c(-c3ccccc3)nc2c1)C1CCCCC1,> 20 µM (inactive)
16,CCC(=O)Nc1ccc2nc(-c3cccs3)c(-c3cccs3)nc2c1,> 20 µM (inactive)
17,CCOC(=O)Nc1ccc2nc(-c3cccs3)c(-c3cccs3)nc2c1,> 20 µM (inactive)
18,Cc1ccc(-c2nc3nc(-c4cccc(F)c4)cn3nc2-c2ccc(C)cc2)cc1,> 20 µM (inactive)
19,COc1cccc(-c2cn3nc(-c4ccccc4)c(-c4ccccc4)nc3n2)c1,> 20 µM (inactive)
20,Fc1ccc(-c2nc3nc(-c4ccccc4)cn3nc2-c2ccc(F)cc2)cc1,8.9 µM
21,CC(C)CS(=O)(=O)Nc1ccc2nc(-c3ccccc3)c(-c3ccccc3)nc2c1,> 20 µM (inactive)

row,SMILES,EC50
1,Fc1ccc(-c2nc3nc(-c4cccc(F)c4)cn3nc2-c2ccc(F)cc2)cc1,5.7 µM
2,O=C(Nc1ccc2nc(-c3cccs3)c(-c3cccs3)nc2c1)NC1CCCC1,> 20 µM (inactive)
3,COc1cccc(-c2cn3nc(-c4ccc(C)cc4)c(-c4ccc(C)cc4)nc3n2)c1,> 20 µM (inactive)
4,O=C(Nc1ccc2nc(-c3cccs3)c(-c3cccs3)nc2c1)C1CCC1,> 20 µM (inactive)
5,COc1ccc(-c2cn3nc(-c4ccccc4)c(-c4ccccc4)nc3n2)c(OC)c1,> 20 µM (inactive)
6,O=S(=O)(Nc1ccc2nc(-c3ccccc3)c(-c3ccccc3)nc2c1)C1CC1,> 20 µM (inactive)
7,COc1ccc(-c2nc3nc(-c4ccc(S(C)(=O)=O)cc4)cn3nc2-c2ccc(OC)cc2)cc1,> 20 µM (inactive)
8,CC(C)NC(=O)Nc1ccc2nc(-c3ccccc3)c(-c3ccccc3)nc2c1,> 20 µM (inactive)
9,COc1ccccc1-c1cn2nc(-c3ccc(F)cc3)c(-c3ccc(F)cc3)nc2n1,5.7 µM
10,CC(Oc1ccccc1)C(=O)Nc1ccc2nc(-c3ccccc3)c(-c3ccccc3)nc2c1 (configuration not stated),> 20 µM (inactive)
11,CC(C)(C)C(=O)Nc1ccc2nc(-c3ccccc3)c(-c3ccccc3)nc2c1,> 20 µM (inactive)
12,COC(=O)Nc1ccc2nc(-c3ccccc3)c(-c3ccccc3)nc2c1,> 20 µM (inactive)
13,CCCOC(=O)Nc1ccc2nc(-c3ccccc3)c(-c3ccccc3)nc2c1,> 20 µM (inactive)
14,Cc1ccc(-c2nc3nc(-c4ccc(C#N)cc4)cn3nc2-c2ccc(C)cc2)cc1,11.2 µM
15,CCNC(=O)Nc1ccc2nc(-c3cccs3)c(-c3cccs3)nc2c1,> 20 µM (inactive)
16,CC(C)OC(=O)Nc1ccc2nc(-c3cccs3)c(-c3cccs3)nc2c1,> 20 µM (inactive)
17,COc1ccc(-c2cn3nc(-c4ccc(C)cc4)c(-c4ccc(C)cc4)nc3n2)cc1,> 20 µM (inactive)
18,COc1ccccc1-c1cn2nc(-c3ccccc3)c(-c3ccccc3)nc2n1,> 20 µM (inactive)
19,COc1ccc(-c2nc3nc(-c4ccc(OC)cc4OC)cn3nc2-c2ccc(OC)cc2)cc1,> 20 µM (inactive)
